Measurements as given in PubChem BioAssay AID1845202 (Molecular Pharmacology Branch, DTP, NCI, 2023).
Values joined by “and” are separate entries in the source; they are usually repeats but may differ in a detail not shown here. Equal entries are not always repeated.

System: DMS 114 tumor spheroids, viability % test/control
Assay: Anticancer human tumor DMS 114 cell line growth inhibition;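 note: spheroids exposed to compounds for 7 days before read-out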;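 for viability, T/C: luminescence used as a proxy for viable cells; 100% = DMSO vehicle control viability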
Settings: spheroids with HUVEC and MSC; for viability, T/C: stronger effect = lower value
Procedure, shortened: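 Complex tumor spheroids combined malignant cells with endothelial cells and mesenchymal stem cells. DNA-damaging drugs and DNA repair inhibitors were tested alone and in combination, at half-log dilutions down from clinical Cmax (top 10 microM if Cmax unknown), 0.25% DMSO final.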

[1] = curve of first compound, second compound 0.003 µM

Cn1ncnc1[C@H]1c2n[nH]c(=O)c3cc(F)cc(c23)N[C@@H]1c1ccc(F)cc1 + CC[C@@]1(O)C(=O)OCc2c1cc1n(c2=O)Cc2cc3c(CN(C)C)c(O)ccc3nc2-1
IC50 [1]: 178 nM | IC50 (curve of first compound, second compound 0.00949 µM): < 9.49 nM | IC50 (curve of first compound, second compound 0.03 µM): < 9.49 nM | IC50 (curve of first compound, second compound 0.0949 µM): < 9.49 nM | IC50 (curve of first compound, second compound 0.3 µM): < 9.49 nM | viability, T/C (second compound 0.003 µM, first compound 0.00949 µM): 80.7% | viability, T/C (second compound 0.003 µM, first compound 0.03 µM): 72.9% | viability, T/C (second compound 0.003 µM, first compound 0.0949 µM): 62% | viability, T/C (second compound 0.003 µM, first compound 0.3 µM): 38.9% | viability, T/C (second compound 0.003 µM, first compound 0.949 µM): 25.2% | viability, T/C (second compound 0.003 µM, first compound 3 µM): 8.5% | viability, T/C (second compound 0.00949 µM, first compound 0.00949 µM): 50.9% | viability, T/C (second compound 0.00949 µM, first compound 0.03 µM): 37.5% | viability, T/C (second compound 0.00949 µM, first compound 0.0949 µM): 32.6% | viability, T/C (second compound 0.00949 µM, first compound 0.3 µM): 25.3% | viability, T/C (second compound 0.00949 µM, first compound 0.949 µM): 16.4% | viability, T/C (second compound 0.00949 µM, first compound 3 µM): 9.08% | viability, T/C (second compound 0.03 µM, first compound 0.00949 µM): 18.6% | viability, T/C (second compound 0.03 µM, first compound 0.03 µM): 18.6% | viability, T/C (second compound 0.03 µM, first compound 0.0949 µM): 16.2% | viability, T/C (second compound 0.03 µM, first compound 0.3 µM): 14% | viability, T/C (second compound 0.03 µM, first compound 0.949 µM): 10% | viability, T/C (second compound 0.03 µM, first compound 3 µM): 4.96% | viability, T/C (second compound 0.0949 µM, first compound 0.00949 µM): 12.8% | viability, T/C (second compound 0.0949 µM, first compound 0.03 µM): 10.6% | viability, T/C (second compound 0.0949 µM, first compound 0.0949 µM): 10.9% | viability, T/C (second compound 0.0949 µM, first compound 0.3 µM): 10.4% | viability, T/C (second compound 0.0949 µM, first compound 0.949 µM): 6.74% | viability, T/C (second compound 0.0949 µM, first compound 3 µM): 3.77% | viability, T/C (second compound 0.3 µM, first compound 0.00949 µM): 7.76% | viability, T/C (second compound 0.3 µM, first compound 0.03 µM): 7.9% | viability, T/C (second compound 0.3 µM, first compound 0.0949 µM): 7.53% | viability, T/C (second compound 0.3 µM, first compound 0.3 µM): 5.94% | viability, T/C (second compound 0.3 µM, first compound 0.949 µM): 5.76% | viability, T/C (second compound 0.3 µM, first compound 3 µM): 2.99%

CC(C)n1c(=O)n(C)c2cnc3cc(F)c(-c4ccc(OCCCN5CCCCC5)nc4)cc3c21
viability, T/C (compound 0.0316 µM): 106% and 99.8% and 105% | viability, T/C (compound 0.1 µM): 104% and 103% and 107% | viability, T/C (compound 0.316 µM): 101% and 97.2% and 106% | viability, T/C (compound 1 µM): 97.8% and 102% and 93.4% | viability, T/C (compound 3.16 µM): 70.1% and 88% and 73.8% | viability, T/C (compound 10 µM): 22.5% and 34.4% and 22.6% | IC50 (curve of compound): 5150 nM and 7210 nM and 5370 nM

CC(C)n1c(=O)n(C)c2cnc3cc(F)c(-c4ccc(OCCCN5CCCCC5)nc4)cc3c21 + COc1cc2c(cc1O)CCNC21CSC2c3c(OC(C)=O)c(C)c4c(c3C(COC1=O)N1C(O)C3Cc5cc(C)c(OC)c(O)c5C(C21)N3C)OCO4
IC50 (curve of first compound, second compound 30 pM): 4100 nM | IC50 (curve of first compound, second compound 94.9 pM): 1600 nM | IC50 (curve of first compound, second compound 0.0003 µM): < 31.6 nM | IC50 (curve of first compound, second compound 0.000949 µM): < 31.6 nM | IC50 [1]: < 31.6 nM | viability, T/C (second compound 30 pM, first compound 0.0316 µM): 75.2% | viability, T/C (second compound 30 pM, first compound 0.1 µM): 102% | viability, T/C (second compound 30 pM, first compound 0.316 µM): 91.9% | viability, T/C (second compound 30 pM, first compound 1 µM): 84.7% | viability, T/C (second compound 30 pM, first compound 3.16 µM): 59% | viability, T/C (second compound 30 pM, first compound 10 µM): 19.2% | viability, T/C (second compound 94.9 pM, first compound 0.0316 µM): 63% | viability, T/C (second compound 94.9 pM, first compound 0.1 µM): 52.2% | viability, T/C (second compound 94.9 pM, first compound 0.316 µM): 54.2% | viability, T/C (second compound 94.9 pM, first compound 1 µM): 58.5% | viability, T/C (second compound 94.9 pM, first compound 3.16 µM): 42.3% | viability, T/C (second compound 94.9 pM, first compound 10 µM): 16.5% | viability, T/C (second compound 0.0003 µM, first compound 0.0316 µM): 21.9% | viability, T/C (second compound 0.0003 µM, first compound 0.1 µM): 23.5% | viability, T/C (second compound 0.0003 µM, first compound 0.316 µM): 22.8% | viability, T/C (second compound 0.0003 µM, first compound 1 µM): 20.6% | viability, T/C (second compound 0.0003 µM, first compound 3.16 µM): 22.3% | viability, T/C (second compound 0.0003 µM, first compound 10 µM): 8.07% | viability, T/C (second compound 0.000949 µM, first compound 0.0316 µM): 2.63% | viability, T/C (second compound 0.000949 µM, first compound 0.1 µM): 2.62% | viability, T/C (second compound 0.000949 µM, first compound 0.316 µM): 2.73% | viability, T/C (second compound 0.000949 µM, first compound 1 µM): 5.38% | viability, T/C (second compound 0.000949 µM, first compound 3.16 µM): 2.74% | viability, T/C (second compound 0.000949 µM, first compound 10 µM): 1.03% | viability, T/C (second compound 0.003 µM, first compound 0.0316 µM): 0.2% | viability, T/C (second compound 0.003 µM, first compound 0.1 µM): 0.22% | viability, T/C (second compound 0.003 µM, first compound 0.316 µM): 0.17% | viability, T/C (second compound 0.003 µM, first compound 1 µM): 0.14% | viability, T/C (second compound 0.003 µM, first compound 3.16 µM): 0.12% | viability, T/C (second compound 0.003 µM, first compound 10 µM): 0.23%
